Laboratory results from patent US9034336B2, “Immunomodulators and immunomodulator conjugates” (Regents of the University of Minnesota, priority 2011, dated 2015).

Legend:
human TLR8 = target: T1, human TLR8 (Homo sapiens, UniProt Q9NR97); assay: TLR7/8-NF-κB reporter assay (HEK-TLR8, SEAP); type: cell-based; conditions: HEK-TLR8 cells, 24 hrs, read-out: EC50 of TLR8 (mean ± SD)
T1 construct: host or cells: HEK (HEK293) cells with NF-kB-responsive SEAP reporter
T1 sequence (Q9NR97 27-1041): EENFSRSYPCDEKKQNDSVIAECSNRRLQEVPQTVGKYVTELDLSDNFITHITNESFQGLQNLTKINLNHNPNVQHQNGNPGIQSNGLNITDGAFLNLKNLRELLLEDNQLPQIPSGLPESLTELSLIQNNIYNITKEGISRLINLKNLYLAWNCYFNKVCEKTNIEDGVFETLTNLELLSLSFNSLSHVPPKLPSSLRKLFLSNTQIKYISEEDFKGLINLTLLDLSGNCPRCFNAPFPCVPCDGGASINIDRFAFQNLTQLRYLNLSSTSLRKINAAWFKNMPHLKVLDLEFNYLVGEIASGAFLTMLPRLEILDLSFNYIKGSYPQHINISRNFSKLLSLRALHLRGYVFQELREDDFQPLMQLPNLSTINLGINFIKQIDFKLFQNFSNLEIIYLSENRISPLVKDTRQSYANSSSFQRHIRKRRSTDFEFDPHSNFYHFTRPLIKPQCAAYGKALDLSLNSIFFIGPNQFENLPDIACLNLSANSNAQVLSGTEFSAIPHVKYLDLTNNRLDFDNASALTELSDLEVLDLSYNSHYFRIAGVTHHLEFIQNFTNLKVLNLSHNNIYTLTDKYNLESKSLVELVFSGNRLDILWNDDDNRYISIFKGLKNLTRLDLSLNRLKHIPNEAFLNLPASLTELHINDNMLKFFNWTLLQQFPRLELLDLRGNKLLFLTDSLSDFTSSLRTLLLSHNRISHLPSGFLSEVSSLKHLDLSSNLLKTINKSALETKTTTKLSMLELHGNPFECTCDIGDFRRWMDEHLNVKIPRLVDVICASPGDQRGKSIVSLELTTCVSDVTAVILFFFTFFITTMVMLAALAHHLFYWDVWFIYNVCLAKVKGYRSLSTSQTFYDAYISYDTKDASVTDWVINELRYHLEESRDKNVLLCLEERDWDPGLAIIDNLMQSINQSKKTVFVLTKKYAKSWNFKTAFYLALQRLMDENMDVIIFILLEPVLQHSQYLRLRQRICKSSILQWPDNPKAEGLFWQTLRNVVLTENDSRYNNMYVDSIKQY
Procedure: Human embryonic kidney (HEK) cells that were stably transfected with human TLR7 or TLR8 and an NF-κB—responsive secreted embryonic alkaline phosphatase (SEAP) gene (HEK-TLR7/8) were purchased from InvivoGen (San Diego, Calif.). The procedure used to measure TLR7 or TLR8 agonist activity was conducted as described by Hood et al. (Hood J. D, et al., Human Vaccines, 2010, 6, 4, 322-335). Briefly, HEK-TLR7/8 cells were stimulated with 3.3 or 30 μM of compound in a 96-well plate in DMEM containing 10% FBS and 0.01% Normocin (InvivoGen) for 24 hrs. Twenty microliters of the supernatant from each well was incubated with Quanti-blue substrate solution (InvivoGen) at 37° C. for 1 hour and absorbance was read at 650 nm using a Synergy plate reader (Biotek, Winooski, Vt.).

BMDC or splenocytes = assay: Inflammatory cytokine detection in BMDC and splenocytes (CBA); type: cell-based, C57BL/6j mice; conditions: Example 6, FIG. 23; compared to resiquimod and imiquimod
Procedure: Bone marrow cells were harvested from femurs and tibias of C57BL/6j. After red blood cells were removed with ammonium-chloride-potassium buffer, the bone marrow cells were cultured with complete RPMI-1640 medium and 2 ng/ml of granulocyte macrophage colony-stimulating factor (GM-CFS) at 5% CO2 and 37° C. for 6 days. Medium was changed twice during 6 days culture. Single cell suspension of splenocytes was prepared in the same way as one in IL-6 detection assay. BMDC or splenocytes were stimulated in triplicate with Imiquimod-derived new TLR ligand compounds, 412, 420, 421, 422, IMQ (414) and Resquimod (415) at various concentration of 20.8 nmol/ml, 5.2 nmol/ml, 1.3 nmol/ml, 0.325 nmol/ml and 0 nmol/ml. 48 hours after stimulation, the supernatants were harvested and frozen at −80° C. until detection. A cytometric bead array (CBA, BD Bioscience) was performed on inflammatory cytokines following the manufacture's instruction. 500 events were collected. Analysis of all samples was performed on FACScanto-II machine with software and further analyzed with Flowjo. Standard curves and negative control (PBS) were included for each cytokine to calculate the cytokine concentration in the samples.

## CCCCc1nc2c(N)nc3cc(C(=O)OC)ccc3c2n1CC(C)(C)O [Compound 420, 4-Amino-2-butyl-1-(2-hydroxy-2-methylpropyl)-7-methoxycarbonyl-1H-imidazo[4,5-c]quinoline]
Human TLR8
  EC50: 49.6 ± 1.02 µM
BMDC or splenocytes
  elaboration of proinflammatory TNFa: significantly greater elaboration of proinflammatory TNFa compared to the other drugs
